Activity calls are given as the source filed them. No cut-off for these calls is given here.
Assays:
[1] = molecular target: T1, Indoleamine 2,3-dioxygenase 1 (Homo sapiens, UniProt P14902); test: Inhibition of human recombinant IDO1 using L-Trp as substrate assessed as kynurenine level after 30 mins
[2] = molecular target: Indoleamine 2,3-dioxygenase 1 (Mus musculus) (UniProt P28776); test: Inhibition of mouse IDO1 overexpressed in mouse P815B cells using L-Trp as substrate assessed as kynurenine level at 10 uM by HPLC analysis relative to control; assay type: cell-based
Sequence of Indoleamine 2,3-dioxygenase 1 (Mus musculus) (P28776 whole entry, looked up): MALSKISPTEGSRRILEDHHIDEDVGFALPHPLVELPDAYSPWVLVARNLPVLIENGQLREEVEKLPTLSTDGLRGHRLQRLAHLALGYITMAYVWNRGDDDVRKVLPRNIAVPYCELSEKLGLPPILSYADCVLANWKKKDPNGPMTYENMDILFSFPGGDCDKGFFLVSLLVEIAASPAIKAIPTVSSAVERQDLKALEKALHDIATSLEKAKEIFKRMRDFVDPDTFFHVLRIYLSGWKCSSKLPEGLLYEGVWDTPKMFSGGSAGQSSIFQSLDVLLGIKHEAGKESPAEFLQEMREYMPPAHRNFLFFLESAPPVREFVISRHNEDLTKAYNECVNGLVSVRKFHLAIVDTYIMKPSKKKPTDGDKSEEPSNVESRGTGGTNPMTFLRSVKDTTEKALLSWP

[3] = Cytotoxicity against mouse P815B cells assessed as cell viability at 10 uM by MTT assay relative to control; assay type: cell-based; details: read-out: Activity
[4] = molecular target: Tryptophan 2,3-dioxygenase (Mus musculus) (UniProt P48776); test: Inhibition of mouse TDO overexpressed in mouse P815B cells using L-Trp as substrate assessed as kynurenine level at 10 uM by HPLC analysis relative to control; assay type: cell-based
Sequence of Tryptophan 2,3-dioxygenase (Mus musculus) (P48776 whole entry): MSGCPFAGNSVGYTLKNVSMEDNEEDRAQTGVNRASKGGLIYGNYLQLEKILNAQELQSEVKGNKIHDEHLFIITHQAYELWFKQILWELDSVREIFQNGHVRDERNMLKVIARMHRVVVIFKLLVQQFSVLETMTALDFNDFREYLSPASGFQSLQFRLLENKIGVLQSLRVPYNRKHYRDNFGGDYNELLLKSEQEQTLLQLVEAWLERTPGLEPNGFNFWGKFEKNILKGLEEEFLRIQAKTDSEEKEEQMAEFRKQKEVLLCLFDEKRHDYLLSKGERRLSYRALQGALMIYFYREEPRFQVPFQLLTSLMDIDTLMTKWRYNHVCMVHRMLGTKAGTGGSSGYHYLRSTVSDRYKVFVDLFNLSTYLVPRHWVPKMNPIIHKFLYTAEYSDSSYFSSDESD

[5] = molecular target: T1, Indoleamine 2,3-dioxygenase 1; test: Uncompetitive inhibition of hexahistidyl-tagged human IDO1
Target sequence in this assay (P14902 whole entry): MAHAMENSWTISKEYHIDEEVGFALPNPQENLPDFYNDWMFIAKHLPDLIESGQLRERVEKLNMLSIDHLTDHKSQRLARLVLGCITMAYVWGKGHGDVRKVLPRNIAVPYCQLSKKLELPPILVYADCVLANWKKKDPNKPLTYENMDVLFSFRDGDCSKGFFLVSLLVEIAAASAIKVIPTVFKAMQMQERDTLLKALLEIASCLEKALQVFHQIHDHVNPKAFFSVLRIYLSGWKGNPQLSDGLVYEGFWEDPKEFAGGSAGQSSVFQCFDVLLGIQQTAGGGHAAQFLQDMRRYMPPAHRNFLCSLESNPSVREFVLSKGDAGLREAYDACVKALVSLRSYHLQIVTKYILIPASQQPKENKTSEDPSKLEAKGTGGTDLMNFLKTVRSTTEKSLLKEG

[6] = molecular target: Indoleamine 2,3-dioxygenase 1 (Mus musculus) (UniProt P28776); test: Inhibition of mouse IDO1 overexpressed in mouse P815B cells using L-Trp as substrate assessed as kynurenine level at 22 uM by HPLC analysis relative to control; assay type: cell-based
[7] = molecular target: Tryptophan 2,3-dioxygenase (Mus musculus) (UniProt P48776); details: P815B, 22 uM
Description: Inhibition of mouse TDO overexpressed in mouse P815B cells using L-Trp as substrate assessed as kynurenine level at 22 uM by HPLC analysis relative to control

Compound | IC50 [1] [µM] | inhibition [2] | inhibition [4] | inhibition [1] [%] | Ki [5] [µM] | inhibition [6] [%] | inhibition [7] | viability at 10 µM [3] [%]
COc1ccc(-c2c[nH]c3c2C2=NCCc4c[nH]c(c42)C3=O)cc1 | 0.9 | 19.4% | inactive | – | – | – | – | > 90
O=C1c2[nH]ccc2C(=O)c2c(-c3ccc(O)cc3)c[nH]c21 | – | inactive | inactive | < 50 | – | – | – | > 90
COc1ccc(C(O)CNC2=CC(=O)c3ccn(S(=O)(=O)c4ccc(C)cc4)c3C2=O)cc1 (configuration not stated) | 2.5 | 24.3% | inactive | – | – | – | – | > 90
CO[C@@]12[C@H](COC(N)=O)C3=C(C(=O)C(C)=C(N)C3=O)N1C[C@@H]1N[C@@H]12 [MITOMYCIN] | – | – | – | – | 25 | – | – | –
COc1ccc(-c2c[nH]c3c2C(=O)c2[nH]cc4c2C3=NCC4)cc1 | 7.1 | – | – | – | – | – | – | < 50
COc1ccc(-c2c[nH]c3c2C(=O)c2[nH]ccc2C3=O)cc1 | 22.4 | – | – | – | – | – | – | < 50
COc1ccc(-c2c[nH]c3c2C2=NCCc4cn(S(=O)(=O)c5ccc(C)cc5)c(c42)C3=O)cc1 | 2.2 | 32% | 3.1% | – | – | – | – | > 90
Cn1cc(C[C@H](N)C(=O)O)c2ccccc21 [(L)-1-METHYLTRYPTOPHAN] | – | – | – | – | – | 14.5 | inactive | > 90
COc1ccc(-c2c[nH]c3c2C(=O)c2cc[nH]c2C3=O)cc1 | 12.6 | – | – | – | – | – | – | < 50
COc1ccc(C(O)CNC2=CC(=O)c3c(ccn3S(=O)(=O)c3ccc(C)cc3)C2=O)cc1 (configuration not stated) | 8.8 | 37.3% | 1.1% | – | – | – | – | > 90
COc1ccc(C(O)CNC2=CC(=O)c3c(CCNC(=O)OC(C)(C)C)cn(S(=O)(=O)c4ccc(C)cc4)c3C2=O)cc1 (configuration not stated) | 26.9 | 31.3% | inactive | – | – | – | – | > 90
O=C1c2[nH]cc3c2C(=NCC3)c2[nH]cc(-c3ccc(O)cc3)c21 | 7 | 5.3% | inactive | – | – | – | – | > 90
COc1ccc(C(O)CNC2=CC(=O)c3c(c(CCNC(=O)OC(C)(C)C)cn3S(=O)(=O)c3ccc(C)cc3)C2=O)cc1 (configuration not stated) | 10.1 | 17.4% | inactive | – | – | – | – | > 90

Continued, in another order:

IC50 [1] [µM] | inhibition [2] | inhibition [4] | inhibition [1] [%] | Ki [5] [µM] | inhibition [6] [%] | inhibition [7] | Compound | viability at 10 µM [3] [%]
2.8 | 26.1% | inactive | – | – | – | – | COc1ccc(C2CNC3=C2C(=O)c2c(CCN)cn(S(=O)(=O)c4ccc(C)cc4)c2C3=O)cc1 (configuration not stated) | 83
5.6 | 40.2% | 4.7% | – | – | – | – | COc1ccc(C2CNC3=C2C(=O)c2c(c(CCN)cn2S(=O)(=O)c2ccc(C)cc2)C3=O)cc1 (configuration not stated) | > 90
– | 19.6% | inactive | < 50 | – | – | – | COc1ccc(-c2c[nH]c3c2C(=O)c2ccn(S(=O)(=O)c4ccc(C)cc4)c2C3=O)cc1 | > 90
5.4 | 15.6% | inactive | – | – | – | – | COc1ccc(-c2c[nH]c3c2C(=O)c2c(CCN)cn(S(=O)(=O)c4ccc(C)cc4)c2C3=O)cc1 | 80
1.8 | 40.2% | 2.5% | – | – | – | – | COc1ccc(C2CNC3=C2C(=O)c2ccn(S(=O)(=O)c4ccc(C)cc4)c2C3=O)cc1 (configuration not stated) | > 90
11.9 | 26% | inactive | – | – | – | – | COc1ccc(-c2c[nH]c3c2C(=O)c2c(c(CCN)cn2S(=O)(=O)c2ccc(C)cc2)C3=O)cc1 | > 90
4.2 | – | – | – | – | – | – | COc1ccc(-c2c[nH]c3c2C(=O)c2c4c(cn2S(=O)(=O)c2ccc(C)cc2)CCN=C34)cc1 | < 50
5.6 | 54.2% | 3.2% | – | – | – | – | COc1ccc(C2CNC3=C2C(=O)c2c(ccn2S(=O)(=O)c2ccc(C)cc2)C3=O)cc1 (configuration not stated) | > 90

From ChEMBL document CHEMBL2331397, “Indoleamine 2,3-dioxygenase inhibitory activity of derivatives of marine alkaloid tsitsikammamine A” (Bioorg Med Chem Lett, 2013)
